# Measured values taken from patent US9212381B2, “Methods and compositions for labeling polypeptides” (President and Fellows of Harvard College, priority 2011, dated 2015).
# “Also recorded” adds a separate entry of the source.
# Tests used:
# [1] = tested on: protein translation in rabbit reticulocyte lysates; test: in vitro translation of 35S-Met-labeled GFP-SuFu in rabbit reticulocyte lysates, SDS-PAGE and autoradiography; format: biochemical; conditions: for inhibition of protein translation in vitro: varying concentrations, 1 hour at 30° C.
# Description: (§1) A plasmid carrying a GFP fusion of the mouse Suppressor of Fused (SuFu) gene under the control of an SP6 RNA polymerase promoter was used to generate 35[S]-Met-labeled GFP-SuFu by in vitro translation in rabbit reticulocyte lysates (TNT SP6 Quick coupled transcription/translation kit, Promega), according to the manufacturer's instructions. Translation reactions were performed for 1 hour at 30° C., in the absence or presence of varying concentrations of puro and OP-puro. The reactions were stopped by addition of SDS-PAGE sample buffer with 50 mM DTT and boiling. Equal amounts of lysate were separated by SDS-PAGE and the amount of in vitro translated GFP-SuFu was determined by autoradiography.
# as §1, with “^35S-Met-labeled” for “35[S]-Met-labeled”, “AE-puro (azido-puromycin, FIG. 5A).” for “OP-puro.”
# [2] = tested on: Cells; conditions: Beatty et al. 2002; cited from earlier work
# [3] = tested on: NIH-3T3 cells; test: OP-puro labeling of cultured cells, CuAAC with Alexa568-azide, fluorescence microscopy; format: cell-based
# Description: NIH-3T3 cells were grown on glass coverslips in Dulbecco modified Eagle's medium (DMEM) supplemented with 10% bovine calf serum, penicillin and streptomycin. OP-puro was added to cells in complete culture medium. After incubation for the desired amount of time, the cells were washed with PBS and then fixed with cold methanol for 2 minutes at −20° C. The cells were washed with TBS (10 mM Tris pH 7.5, 150 mM NaCl), permeabilized with TBST (TBS with 0.2% Triton X-100), and then washed with TBS again. CuAAC detection of OP-puro incorporated into nascent protein was performed by reacting the fixed cells for 30 minutes at room temperature with 20 μM Alexa568-azide, as described (Salic et al., Proc. Natl. Acad. Sci. USA 105(7):2415-2420 (2008)). Cu(I) was generated in situ from CuSO4 and ascorbic acid. After staining, the coverslips were washed several times with TBST, counterstained with Hoechst, and mounted in standard mounting media. The stained cells were imaged by DIC and by epi-fluorescence microscopy on a Nikon TE2000U microscope equipped with an OrcaER camera (Hammamatsu), and 20× PlanApo 0.75 NA and 40× PlanApo 0.95 NA air objectives (Nikon). Images were collected using Metamorph image acquisition software (Applied Precision).
# To determine if protein synthesis is required for OP-puro incorporation into nascent polypeptides, cells were incubated with OP-puro, in the presence or absence of 50 micrograms/mL cycloheximide (CHX), added to the cells 15 minutes before OP-puro. This concentration of CHX was determined to completely block protein translation in cells.
# To determine the effect of inhibiting the proteasome on the stability of OP-puro-conjugated polypeptide chains, cells were pulse-labeled with 50 microM OP-puro for 15 minutes and were then incubated in complete media supplemented with 50 micrograms/mL CHX (to block further incorporation of OP-puro into nascent proteins), in the presence or absence of 5 microM of the proteasome inhibitor bortezomib. Cells were fixed at the indicated times and were stained in parallel with Alexa568-azide. Two negative controls were used: 1) untreated cells; and 2) cells pre-incubated with 50 micrograms/mL CHX for 15 minutes, followed by incubation with 50 microM OP-puro and 50 micrograms/mL CHX for another 15 minutes.
# [4] = tested on: human embryonic kidney 293T cells; test: translation inhibition in cells: 35S-Met bulk protein translation, SDS-PAGE and autoradiography; format: cell-based
# Description: To measure translation inhibition in cells, human embryonic kidney 293T cells were pre-incubated for 30 minutes with varying concentrations of puro or OP-puro, in complete media. The cells were then incubated for 3 hours in Met-free media supplemented with 35[S]-Met (from Perkin-Elmer, at 100 microCi/mL final concentration), in the continued presence of varying concentrations of puro or OP-puro. The cells were harvested, lyzed in TBS with 1% Triton X-100 and protease inhibitors (Complete tablets, Roche), and centrifuged for 15 minutes at 20,000 g in a refrigerated centrifuge. The clarified cells lysates were analyzed by SDS-PAGE, followed by autoradiography, to measure bulk protein translation.
# [5] = tested on: nascent proteins in mouse tissues; test: imaging of protein synthesis in whole animals with OP-puro, CuAAC with TMR-azide; format: in vivo
# Description: One hundred microliters of a 20 mM solution of OP-puro in PBS were injected intraperitoneally into a 3-week old mouse, while a mouse injected with 100 microliters of PBS was used as negative control. Various organs were harvested after one hour and were fixed in formalin overnight. Organ fragments were embedded in paraffin, sectioned, and washed with xylene to remove the paraffin. After washing with ethanol and rehydration in TBS, the tissue sections were stained with 20 microM tetramethylrhodamine(TMR)-azide, as described (Salic et al., Proc. Natl. Acad. Sci. USA 105(7):2415-2420 (2008)). The tissue sections were counterstained with Hoechst, mounted in standard mounting media and were then imaged by fluorescence microscopy and DIC.
# [6] = tested on: Human 293T cells; test: affinity purification of nascent polypeptide-OP-puro conjugates (CuAAC with biotin azide, beads, autoradiography); format: cell-based; conditions: 25 microM OP-puro, 1 hour, FIG. 1E
# Description: Human 293T cells were labeled for 1 hour in Met-free DMEM supplemented with 10% dialyzed fetal bovine serum and 35[S]-Met (100 microCi/mL final). The cells were then incubated in the same media, in the presence of 10 microM puro, 25 microM OP-puro or 25 microM OP-puro and 50 micrograms/mL CHX, for an additional 1 hour. The cells were harvested, washed with ice cold PBS and then lyzed on ice in 100 mM Tris pH 8.5 with 1% Triton-X10 and protease inhibitors. The lysates were clarified by centrifugation for 15 minutes at 20,000 g and 4° C., and were then subjected to CuAAC with biotin azide for 30 minutes at room temperature. The final concentrations in the CuAAC reaction were: 100 microM biotin azide, 1 mM CuSO4 and 50 mM ascorbic acid (added last to the lysates). Biotinylated proteins were diluted in binding buffer (20 mM Tris pH 8, 500 mM NaCl, 1% Triton-X100) and were bound to Neutravidin beads (Pierce). After extensive washes with binding buffer, bound proteins were eluted, separated by SDS-PAGE and detected by autoradiography.
structure (smiles),measurement,setting,value
"CN(C)c1ncnc2c1ncn2[C@@H]1O[C@H](CO)[C@@H](NC(=O)[C@@H](N)Cc2ccc(OCCN=[N+]=[N-])cc2)[C@H]1O [AE-puro, (S)-2-Amino-3-(4-(2-azidoethoxy)phenyl)-N-((2S,3S,4R,5R)-5-(6-(dimethylamino)-9H-purin-9-yl)-4-hydroxy-2(hydroxymethyl)tetrahydrofuran-3-yl)propanamide]",potency of protein synthesis inhibition compared with unmodified puromycin,"[1]; reticulocyte lysates, FIG. 5B",equal to that of unmodified puromycin
same,inhibition of protein translation in vitro,[1],inhibits protein synthesis in a dose-dependent manner
"C#CCCC(N)C(=O)O (stereo not drawn) [Hpg, homopropargylglycine]",factor by which cells prefer Met over the analog,[2],about 500
"C[C@@H]1C[C@@H]([C@H](O)CC2CC(=O)NC(=O)C2)C(=O)[C@@H](C)C1 [CHX, cycloheximide, reference compound]",effect on OP-puro incorporation / conjugate formation,[3]; CHX 50 micrograms/mL,abolished; also recorded: do not form
same,concentration determined to completely block protein translation in cells,[3]; added 15 minutes before OP-puro,50 micrograms/mL
"C#CCOc1ccc(C[C@H](N)C(=O)N[C@H]2[C@@H](O)[C@H](n3cnc4c(N(C)C)ncnc43)O[C@@H]2CO)cc1 [OP-puro, (S)-2-Amino-N-((2S,3S,4R,5R)-5-(6-(dimethylamino)-9H-purin-9-yl)-4-hydroxy-2-(hydroxymethyl)tetrahydrofuran-3-yl)-3-(4-(prop-2-yn-1-yloxy)phenyl)propanamide]",concentration that blocked protein synthesis almost completely,[4]; cell type not stated at the place,25 µM
same,"potency of protein synthesis inhibition, fold lower than that of unmodified puro","[4]; cultured cells, FIG. 1D",2-3 fold
same,OP-puro incorporation into nascent proteins in tissues,"[5]; 100 microliters 20 mM intraperitoneally, organs harvested after 1 hour",specific patterns of OP-puro incorporation into nascent proteins
same,"OP-puro staining pattern, small intestine","[5]; intraperitoneal, 1 hour, FIG. 3A/3B",strongest in cells in the crypts and at the base of intestinal villi; also recorded: stains strongly the cells in the crypts (particularly Paneth cells) and the cells at the base of the villi
same,"OP-puro staining, muscle","[5]; intraperitoneal, 1 hour, FIG. 3C",striking striated pattern; also recorded: Sarcomeres are strongly stained
same,"OP-puro staining, liver","[5]; intraperitoneal, 1 hour, FIG. 4A",strongest in hepatocytes; also recorded: stains strongly all hepatocytes
same,"OP-puro staining, spleen","[5]; intraperitoneal, 1 hour, FIG. 4C","strongest OP-puro signal is found at the organ's periphery, under the capsule"
same,fluorescent signal versus OP-puro concentration,"[3]; 1 hour incubation, Alexa568-azide, FIG. 2A",specific fluorescent signal proportional to the concentration of OP-puro; also recorded: proportional to the concentration of added OP-puro
same,cytoplasmic OP-puro signal at later time points,[3]; 3 hour image of FIG. 2B,significantly decreased
same,incubation time after which a strong signal was seen,[3]; FIG. 2B,15 min
same,concentration sufficient to completely block protein synthesis,[3]; stated in legend of FIG. 2B,50 µM
same,formation of conjugates with nascent polypeptide chains,[6],formed conjugates with 35[S]-Met-labeled nascent polypeptide chains
same,"potency of protein synthesis inhibition, fold lower than that of unmodified puro","[1]; reticulocyte lysates, FIG. 1C",2-3 fold
same,inhibition of protein translation in vitro,[1],inhibits protein synthesis in a dose-dependent manner
"[N-]=[N+]=NCC[C@H](N)C(=O)O [Aha, azidohomoalanine]",factor by which cells prefer Met over the analog,[2],about 500
"CC(C)C[C@H](NC(=O)[C@H](Cc1ccccc1)NC(=O)c1cnccn1)B(O)O [bortezomib, reference compound]",effect on stability of OP-puro conjugates,"[3]; 5 microM bortezomib in chase, FIG. 2C",become stable; also recorded: completely stabilized
